Laboratory results from patent US12655142B2 (Merck Patent GmbH, priority 2019, dated 2026).

Legend:
[1] = Determination of Efflux-Ratio (ER) in Caco-2 cells; settings: human, Caco-2, pH 7.4
[2] = target: T1, GIST430/654 cell line expressing mutated constitutively active cKIT receptor tyrosine kinase (Δ560-576 deletion and V654A point mutation) (Homo sapiens, UniProt P10721, DEL560-576/V654A); test: Cellular cKIT autophosphorylation (phospho-Y307-cKIT, Luminex bead assay) in GIST430/654 cells; type: cell-based; settings: compounds 45 min, read-out: GIST 430/654 IC50
T1 construct: endogenous in cells; host or cells: GIST430/654 cells
T1 sequence (P10721 with tags, fused parts or gaps DEL560-576/V654A): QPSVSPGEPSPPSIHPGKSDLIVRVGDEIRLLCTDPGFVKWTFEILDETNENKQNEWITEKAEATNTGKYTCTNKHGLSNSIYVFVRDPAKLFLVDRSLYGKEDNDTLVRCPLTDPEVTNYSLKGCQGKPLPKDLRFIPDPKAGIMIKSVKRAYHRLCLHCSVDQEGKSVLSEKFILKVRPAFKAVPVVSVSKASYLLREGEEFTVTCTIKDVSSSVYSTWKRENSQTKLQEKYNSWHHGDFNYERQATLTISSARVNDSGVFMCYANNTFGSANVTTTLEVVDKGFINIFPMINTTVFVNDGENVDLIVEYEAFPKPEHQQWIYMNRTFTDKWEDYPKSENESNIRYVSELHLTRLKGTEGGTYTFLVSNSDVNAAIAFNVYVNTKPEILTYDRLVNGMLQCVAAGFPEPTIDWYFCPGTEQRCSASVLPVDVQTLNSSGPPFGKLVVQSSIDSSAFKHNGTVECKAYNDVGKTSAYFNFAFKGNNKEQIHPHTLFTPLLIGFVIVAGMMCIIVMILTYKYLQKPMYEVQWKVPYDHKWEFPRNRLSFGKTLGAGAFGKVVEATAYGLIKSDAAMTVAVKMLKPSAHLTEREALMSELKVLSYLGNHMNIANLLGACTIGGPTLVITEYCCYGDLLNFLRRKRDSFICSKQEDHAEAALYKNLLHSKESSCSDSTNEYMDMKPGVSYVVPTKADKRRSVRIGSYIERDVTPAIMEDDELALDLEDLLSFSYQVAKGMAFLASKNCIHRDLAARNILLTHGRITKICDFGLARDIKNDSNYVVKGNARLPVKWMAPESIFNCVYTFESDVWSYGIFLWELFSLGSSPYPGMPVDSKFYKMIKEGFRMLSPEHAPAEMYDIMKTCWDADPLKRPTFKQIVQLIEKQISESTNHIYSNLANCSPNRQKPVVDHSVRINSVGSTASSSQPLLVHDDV
In short: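 Phospho-Y307 cKIT in lysates was measured on a Luminex bead assay, with total-cKIT capture overnight at 4 °C and phosphospecific plus PE secondary detection. Cells had 45 min exposure to a compound dilution series the day after plating: GIST430 (Δ560-576) or GIST430/654 (Δ560-576/V654A, grown with 100 nM imatinib). IC50 values are relative to 0.3% DMSO-treated cells.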

c-Kit(V654A) = target: T2, c-Kit(V654A) (Homo sapiens, UniProt P10721, V654A); test: c-Kit(V654A) assay (33P-ATP filter binding kinase assay); type: biochemical; settings: recombinant human c-Kit aa 544-end V654A, ATP 200 μM
T2 construct: recombinant human c-Kit, amino acids 544-end containing the V654A mutation; GST (N)
T2 sequence (P10721 544-976 V654A): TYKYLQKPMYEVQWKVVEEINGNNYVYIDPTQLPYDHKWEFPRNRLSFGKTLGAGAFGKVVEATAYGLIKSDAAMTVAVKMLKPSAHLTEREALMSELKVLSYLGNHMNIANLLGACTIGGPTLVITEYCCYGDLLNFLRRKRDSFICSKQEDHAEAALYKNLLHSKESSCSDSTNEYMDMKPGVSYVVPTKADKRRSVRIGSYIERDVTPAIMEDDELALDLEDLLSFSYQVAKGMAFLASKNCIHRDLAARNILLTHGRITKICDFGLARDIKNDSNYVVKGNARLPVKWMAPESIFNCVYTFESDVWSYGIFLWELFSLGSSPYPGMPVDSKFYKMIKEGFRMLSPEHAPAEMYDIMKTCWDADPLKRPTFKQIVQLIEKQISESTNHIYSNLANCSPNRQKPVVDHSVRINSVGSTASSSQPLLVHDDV
In short: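 Radiometric filter-binding read-out: substrate 33P incorporation counted by scintillation after P30 filtermat washes in 75 mM phosphoric acid and methanol. Enzyme: N-GST recombinant human c-Kit aa 544-end carrying V654A.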

Compound | efflux ratio at 2 h, 1 μM [1] | IC50 [2] [nM] | IC50 (c-Kit(V654A)) [nM]
Cn1cc(-c2ccc(CNc3cc(-c4cnc5cc(OCCN6CCO[C@@H]7COCC[C@@H]76)ccn45)ncn3)cc2)cn1 [A211, (6-{7-[(4aS,8aS)-2-(hexahydro-pyrano[3,4-b][1,4]oxazin-1-yl)-ethoxy]-imidazo[1,2-a]pyridin-3-yl}-pyrimidin-4-yl)-[4-(1-methyl-1H-pyrazol-4-yl)-benzyl]-amine] | < 15 | 85 | 10
Cc1noc(C2CN(CCOc3ccn4c(-c5cc(NCc6ccc(-c7cnn(C)c7)cc6)ncn5)cnc4c3)C2)n1 [A213, [6-(7-{2-[3-(3-methyl-[1,2,4]oxadiazol-5-yl)-azetidin-1-yl]-ethoxy}-imidazo[1,2-a]pyridin-3-yl)-pyrimidin-4-yl]-[4-(1-methyl-1H-pyrazol-4-yl)-benzyl]-amine] | < 15 | 180 | 16
Cn1cc(-c2ccc(CNc3cc(-c4cnc5cc(OCCN6CCOC(F)(F)C6)ccn45)ncn3)cc2)cn1 [A214, (6-{7-[2-(2,2-difluoro-morpholin-4-yl)-ethoxy]-imidazo[1,2-a]pyridin-3-yl}-pyrimidin-4-yl)-[4-(1-methyl-1H-pyrazol-4-yl)-benzyl]-amine] | < 15 | 180 | 21
Cn1cc(-c2ccc(CNc3cc(-c4cnc5cc(OCCN6CC(S(C)(=O)=O)C6)ccn45)ncn3)cc2)cn1 [A215, (6-{7-[2-(3-methanesulfonyl-azetidin-1-yl)-ethoxy]-imidazo[1,2-a]pyridin-3-yl}-pyrimidin-4-yl)-[4-(1-methyl-1H-pyrazol-4-yl)-benzyl]-amine] | > 50 | 120 | 10
Cn1cc(-c2ccc(CNc3cc(-c4cnc5cc(OCCN6CCn7nccc7C6)ccn45)ncn3)cc2)cn1 [A216, (6-{7-[2-(6,7-dihydro-4H-pyrazolo[1,5-a]pyrazin-5-yl)-ethoxy]-imidazo[1,2-a]pyridin-3-yl}-pyrimidin-4-yl)-[4-(1-methyl-1H-pyrazol-4-yl)-benzyl]-amine] | < 15 | 130 | 8.2
Cn1cc(-c2ccc(CNc3cc(-c4cnc5cc(OCCN6CCn7cccc7C6)ccn45)ncn3)cc2)cn1 [A218, (6-{7-[2-(3,4-dihydro-1H-pyrrolo[1,2-a]pyrazin-2-yl)-ethoxy]-imidazo[1,2-a]pyridin-3-yl}-pyrimidin-4-yl)-[4-(1-methyl-1H-pyrazol-4-yl)-benzyl]-amine] | < 15 | 200 | 11
CN1CCN(CCOc2ccn3c(-c4cc(NCc5ccc(-c6cnn(C)c6)cc5)ncn4)cnc3c2)CCC1=O [A219, 4-methyl-1-[2-(3-{6-[4-(1-methyl-1H-pyrazol-4-yl)-benzylamino]-pyrimidin-4-yl}-imidazo[1,2-a]pyridin-7-yloxy)-ethyl]-[1,4]diazepan-5-one] | 15 to 50 | 100 | 11
COC1(C)CCN(CCOc2ccn3c(-c4cc(NCc5ccc(-c6cnn(C)c6)cc5)ncn4)cnc3c2)CC1 [A220, (6-{7-[2-(4-methoxy-4-methyl-piperidin-1-yl)-ethoxy]-imidazo[1,2-a]pyridin-3-yl}-pyrimidin-4-yl)-[4-(1-methyl-1H-pyrazol-4-yl)-benzyl]-amine] | < 15 | 140 | 11
Cc1nnc2n1CCN(CCOc1ccn3c(-c4cc(NCc5ccc(-c6cnn(C)c6)cc5)ncn4)cnc3c1)C2 [A221, (6-{7-[2-(3-methyl-5,6-dihydro-8H-[1,2,4]triazolo[4,3-a]pyrazin-7-yl)-ethoxy]-imidazo[1,2-a]pyridin-3-yl}-pyrimidin-4-yl)-[4-(1-methyl-1H-pyrazol-4-yl)-benzyl]-amine] | > 50 | 400 | 14
Cn1cc(-c2ccc(CNc3cc(-c4cnc5cc(OCCN6CCC(C)(C#N)CC6)ccn45)ncn3)cc2)cn1 [A222, 4-methyl-1-[2-(3-{6-[4-(1-methyl-1H-pyrazol-4-yl)-benzylamino]-pyrimidin-4-yl}-imidazo[1,2-a]pyridin-7-yloxy)-ethyl]-piperidine-4-carbonitrile] | < 15 | 93 | 17
Cn1cc(-c2ccc(CNc3cc(-c4cnc5cc(OCCC(C)(C)N)ccn45)ncn3)cc2)cn1 [A223, {6-[7-(3-amino-3-methyl-butoxy)-imidazo[1,2-a]pyridin-3-yl]-pyrimidin-4-yl}-[4-(1-methyl-1H-pyrazol-4-yl)-benzyl]-amine] | > 50 | 190 | 11
Cn1cc(-c2ccc(CNc3cc(-c4cnc5cc(OCCS(C)(=O)=O)ccn45)ncn3)cc2)cn1 [A224, {6-[7-(2-methanesulfonyl-ethoxy)-imidazo[1,2-a]pyridin-3-yl]-pyrimidin-4-yl}-[4-(1-methyl-1H-pyrazol-4-yl)-benzyl]-amine] | 15 to 50 | 99 | 6.5
Cn1cc(-c2ccc(CNc3cc(-c4cnc5cc(-c6cnn(C)c6)ccn45)ncn3)cc2)cn1 [A226, 6-[7-(1-methyl-1H-pyrazol-4-yl)imidazo[1,2-a]pyridin-3-yl]-N-{[4-(1-methyl-1H-pyrazol-4-yl)phenyl]methyl}pyrimidin-4-amine] | < 15 | 51 | 4.2
Cn1cc(-c2ccc(CNc3cc(-c4cnc5cc(N6CCN(C7COC7)CC6)ccn45)ncn3)cc2)cn1 [A230, [4-(1-methyl-1H-pyrazol-4-yl)-benzyl]-{6-[7-(4-oxetan-3-yl-piperazin-1-yl)-imidazo[1,2-a]pyridin-3-yl]-pyrimidin-4-yl}-amine] | < 15 | 63 | 24
Cn1ncc(-c2ccc(CNc3cc(-c4cnc5cc(OCCCS(C)(=O)=O)ccn45)ncn3)cc2)n1 [A231, {6-[7-(3-methanesulfonyl-propoxy)-imidazo[1,2-a]pyridin-3-yl]-pyrimidin-4-yl}-[4-(2-methyl-2H-[1,2,3]triazol-4-yl)-benzyl]-amine] | 15 to 50 | 250 | 15
Cn1cc(-c2ccc(CNc3cc(-c4cnc5cc(OCCC6(N)COC6)ccn45)ncn3)cc2)cn1 [A233] | > 50 | 130 | 8.7
Cn1cc(-c2ccc(CNc3cc(-c4cnc5cc(OCCOCCO)ccn45)ncn3)cc2)cn1 [A234, 2-[2-(3-{6-[4-(1-methyl-1H-pyrazol-4-yl)-benzylamino]-pyrimidin-4-yl}-imidazo[1,2-a]pyridin-7-yloxy)-ethoxy]-ethanol] | < 15 | 70 | 8.5
Cc1nc(-c2ccc(CNc3cc(-c4cnc5cc(OCCO)ccn45)ncn3)cc2)co1 [A236, 2-(3-{6-[4-(2-methyl-oxazol-4-yl)-benzylamino]-pyrimidin-4-yl}-imidazo[1,2-a]pyridin-7-yloxy)-ethanol] | < 15 | 74 | 1.5
Cn1cc(-c2ccc(CNc3cc(-c4cnc5cc(OCCCN6CCN(C7CC7)CC6)ccn45)ncn3)cc2)cn1 [A243, (6-{7-[3-(4-cyclopropyl-piperazin-1-yl)-propoxy]-imidazo[1,2-a]pyridin-3-yl}-pyrimidin-4-yl)-[4-(1-methyl-1H-pyrazol-4-yl)-benzyl]-amine] | < 15 | 40 | 6.7
Cn1cc(-c2ccc(CNc3cc(-c4cnc5cc(N6CCC(O)C6)ccn45)ncn3)cc2)cn1 (stereo not drawn) [A245, 1-(3-{6-[4-(1-methyl-1H-pyrazol-4-yl)-benzylamino]-pyrimidin-4-yl}-imidazo[1,2-a]pyridin-7-yl)-pyrrolidin-3-ol] | > 50 | 84 | 13
Cn1cc(-c2ccc(CNc3cc(-c4cnc5cc(N6CC7(COC7)C6)ccn45)ncn3)cc2)cn1 [A246, [4-(1-methyl-1H-pyrazol-4-yl)-benzyl]-{6-[7-(2-oxa-6-aza-spiro[3.3]hept-6-yl)-imidazo[1,2-a]pyridin-3-yl]-pyrimidin-4-yl}-amine] | < 15 | 38 | 8
Cn1cc(-c2ccc(CNc3cc(-c4cnc5cc(N6CCC7(COC7)C6)ccn45)ncn3)cc2)cn1 [A247, [4-(1-methyl-1H-pyrazol-4-yl)-benzyl]-{6-[7-(2-oxa-6-aza-spiro[3.4]oct-6-yl)-imidazo[1,2-a]pyridin-3-yl]-pyrimidin-4-yl}-amine] | < 15 | 62 | 7.8
CN1CC2(CN(CCOc3ccn4c(-c5cc(NCc6ccc(-c7cnn(C)c7)cc6)ncn5)cnc4c3)C2)OC1=O [A248, 7-methyl-2-[2-(3-{6-[4-(1-methyl-1H-pyrazol-4-yl)-benzylamino]-pyrimidin-4-yl}-imidazo[1,2-a]pyridin-7-yloxy)-ethyl]-5-oxa-2,7-diaza-spiro[3.4]octan-6-one] | > 50 | 160 | 21
CC(Nc1cc(-c2cnc3cc(OCCCN4CCC4)ccn23)ncn1)c1ccc(-c2cnn(C)c2)cc1 (stereo not drawn) [A249, {6-[7-(3-azetidin-1-yl-propoxy)-imidazo[1,2-a]pyridin-3-yl]-pyrimidin-4-yl}-{1-[4-(1-methyl-1H-pyrazol-4-yl)-phenyl]-ethyl}-amine] | > 50 | 440 | 87
